How the values were obtained:
[1] = system: antibodies in sera from SARS patients (sera 1a, 1b, 2, 6, 37, 62, London, SARS-yellow, SARS-green); assay type: binding, human; parameters: Binding of serum 6 to linear peptides of protein X1 of SARS-CoV Urbani / Binding of serum 37 to linear peptides of protein X1 of SARS-CoV Urbani / Binding of serum 6 to looped/cyclic peptide (PEPSCAN-ELISA) / Binding of serum 37 to looped/cyclic peptide (PEPSCAN-ELISA) / Binding of serum 37 to looped/cyclic peptides of protein X1 of SARS-CoV Urbani / Binding of serum 6 to linear peptides of protein X2 / Binding of serum 37 to linear peptides of protein X2 / Binding of serum 37 to looped/cyclic peptides of protein X2 of SARS-CoV Urbani / Binding of serum 6 to linear peptides of protein M of SARS-CoV Urbani / Binding of serum 37 to linear peptides of protein M of SARS-CoV Urbani / Binding of serum 6 to looped/cyclic peptides of protein M of SARS-CoV Urbani / Binding of serum 37 to looped/cyclic peptides of protein M of SARS-CoV Urbani / Binding of serum 6 to linear peptides of protein X3 of SARS-CoV Urbani / Binding of serum 37 to linear peptides of protein X3 of SARS-CoV Urbani / Binding of serum 37 to looped/cyclic peptides of protein X3 of SARS-CoV Urbani / Binding of serum 6 to linear peptides of protein X4 of SARS-CoV Urbani / Binding of serum 37 to linear peptides of protein X4 of SARS-CoV Urbani / Binding of serum 37 to looped/cyclic peptides of protein X4 of SARS-CoV Urbani / Binding of serum 6 to linear peptides of protein X5 of SARS-CoV Urbani / Binding of serum 37 to linear peptides of protein X5 of SARS-CoV Urbani / Binding of serum 37 to looped/cyclic peptides of protein X5 of SARS-CoV Urbani / Binding of serum 6 to linear peptides of protein N of SARS-CoV Urbani / Binding of serum 37 to linear peptides of protein N of SARS-CoV Urbani / Binding of serum 6 to linear peptide (PEPSCAN-ELISA) / Binding of serum 1a to looped/cyclic peptides of protein N of SARS-CoV Urbani / Binding of serum 1b to looped/cyclic peptides of protein N of SARS-CoV Urbani / Binding of serum 2 to looped/cyclic peptides of protein N of SARS-CoV Urbani / Binding of serum 6 to looped/cyclic peptides of protein N of SARS-CoV Urbani / Binding of serum 37 to looped/cyclic peptides of protein N of SARS-CoV Urbani / Binding of serum 62 to looped/cyclic peptides of protein N of SARS-CoV Urbani / Binding of serum London to looped/cyclic peptides of protein N of SARS-CoV Urbani / Binding of serum SARS-green to looped/cyclic peptides of protein N of SARS-CoV Urbani: unit not given here
[2] = system: rabbit serum obtained by immunizing a rabbit with the SARS-CoV strain Frankfurt 1; assay type: binding; parameters: Binding of a rabbit serum to linear peptides / Binding of a rabbit serum to looped peptides / Rabbit serum linear peptides / Rabbit serum looped peptides / Binding of a rabbit serum to linear peptides of protein N of SARS-CoV Urbani (Rabbit serum linear peptides) / Binding of a rabbit serum to looped/cyclic peptides of protein N of SARS-CoV Urbani (Rabbit serum looped peptides): unit not given here
[3] = system: control sera (pooled serum of ten healthy LUMC hospital workers; commercial negative donor pooled serum from the Dutch bloodbank); assay type: binding, human; parameters: Binding of Control serum LUMC to linear peptides / Binding of Control serum Blood-bank to linear peptides / Binding of Control serum LUMC to looped peptides / Binding of Control Serum Blood-Bank to Looped peptides / Binding of Control serum LUMC to linear peptides of the protein M of SARS-CoV Urbani / Binding of Control serum Blood-bank to linear peptides of the protein M of SARS-CoV Urbani / Binding of Control serum LUMC to looped peptides of the protein M of SARS-CoV Urbani / Binding of Control Serum Blood-Bank to Looped peptides of the protein M of SARS-CoV Urbani: unit not given here

## IKLVFLWLLWPVTLA
[1]
  Binding of serum 1a to linear peptides of protein M of SARS-CoV Urbani: 0.7
  Binding of serum 1a to looped/cyclic peptides of protein M of SARS-CoV Urbani: 0.7
  Binding of serum 1b to linear peptides of protein M of SARS-CoV Urbani: 0.5
  Binding of serum 1b to looped/cyclic peptides of protein M of SARS-CoV Urbani: 0.8
  Binding of serum 2 to linear peptides of protein M of SARS-CoV Urbani: 0.7
  Binding of serum 2 to looped/cyclic peptides of protein M of SARS-CoV Urbani: 0.6
  Binding of serum 6 to linear peptides of protein M of SARS-CoV Urbani: 0.5
  Binding of serum 6 to looped/cyclic peptides of protein M of SARS-CoV Urbani: 0.9
  Binding of serum 37 to linear peptides of protein M of SARS-CoV Urbani: 0.6
  Binding of serum 37 to looped/cyclic peptides of protein M of SARS-CoV Urbani: 0.8
  Binding of serum 62 to linear peptides of protein M of SARS-CoV Urbani: 0.7
  Binding of serum 62 to looped/cyclic peptides of protein M of SARS-CoV Urbani: 0.8
  Binding of serum London to linear peptides of protein M of SARS-CoV Urbani: 0.6
  Binding of serum London to looped/cyclic peptides of protein M of SARS-CoV Urbani: 0.3
  Binding of serum SARS-green to linear peptides of protein M of SARS-CoV Urbani: 0.3
  Binding of serum SARS-green to looped/cyclic peptides of protein M of SARS-CoV Urbani: 0.3
  Binding of serum SARS-yellow to linear peptides of protein M of SARS-CoV Urbani: 0.1
  Binding of serum SARS-yellow to looped/cyclic peptides of protein M of SARS-CoV Urbani: 0.5
[2]
  Rabbit serum linear peptides: 0.3
  Rabbit serum looped peptides: 0.0
[3]
  Binding of Control Serum Blood-Bank to Looped peptides of the protein M of SARS-CoV Urbani: 0.9
  Binding of Control serum Blood-bank to linear peptides of the protein M of SARS-CoV Urbani: 0.7
  Binding of Control serum LUMC to linear peptides of the protein M of SARS-CoV Urbani: 0.4
  Binding of Control serum LUMC to looped peptides of the protein M of SARS-CoV Urbani: 0.7

## ILFLTLIVFTSCELY
[1]
  Binding of serum 1a to linear peptides of protein X4 of SARS-CoV Urbani: 0.7
  Binding of serum 1a to looped/cyclic peptides of protein X4 of SARS-CoV Urbani: 0.7
  Binding of serum 1b to linear peptides of protein X4 of SARS-CoV Urbani: 0.6
  Binding of serum 1b to looped/cyclic peptides of protein X4 of SARS-CoV Urbani: 0.4
  Binding of serum 2 to linear peptides of protein X4 of SARS-CoV Urbani: 0.5
  Binding of serum 2 to looped/cyclic peptides of protein X4 of SARS-CoV Urbani: 0.7
  Binding of serum 6 to linear peptides of protein X4 of SARS-CoV Urbani: 0.5
  Binding of serum 6 to looped/cyclic peptides of protein X4 of SARS-CoV Urbani: 0.6
  Binding of serum 37 to linear peptides of protein X4 of SARS-CoV Urbani: 0.7
  Binding of serum 37 to looped/cyclic peptides of protein X4 of SARS-CoV Urbani: 0.7
  Binding of serum 62 to linear peptides of protein X4 of SARS-CoV Urbani: 0.7
  Binding of serum 62 to looped/cyclic peptides of protein X4 of SARS-CoV Urbani: 0.7
  Binding of serum London to linear peptides of protein X4 of SARS-CoV Urbani: 0.6
  Binding of serum London to looped/cyclic peptides of protein X4 of SARS-CoV Urbani: 0.3
  Binding of serum SARS-green to linear peptides of protein X4 of SARS-CoV Urbani: 0.6
  Binding of serum SARS-green to looped/cyclic peptides of protein X4 of SARS-CoV Urbani: 0.4
  Binding of serum SARS-yellow to linear peptides of protein X4 of SARS-CoV Urbani: 0.4
  Binding of serum SARS-yellow to looped/cyclic peptides of protein X4 of SARS-CoV Urbani: 0.6
[2]
  Rabbit serum linear peptides: 0.7
  Rabbit serum looped peptides: 0.2
[3]
  Binding of Control Serum Blood-Bank to Looped peptides: 0.7
  Binding of Control serum Blood-bank to linear peptides: 0.6
  Binding of Control serum LUMC to linear peptides: 0.7
  Binding of Control serum LUMC to looped peptides: 0.8

## ILRIGTQVLKTMSLY
[1]
  Binding of serum 1a to linear peptides of protein X2: 0.7
  Binding of serum 1a to looped/cyclic peptides of protein X2 of SARS-CoV Urbani: 0.6
  Binding of serum 1b to linear peptides of protein X2: 0.5
  Binding of serum 1b to looped/cyclic peptides of protein X2 of SARS-CoV Urbani: 0.5
  Binding of serum 2 to linear peptides of protein X2: 0.4
  Binding of serum 2 to looped/cyclic peptides of protein X2 of SARS-CoV Urbani: 0.3
  Binding of serum 6 to linear peptides of protein X2: 0.4
  Binding of serum 6 to looped/cyclic peptides of protein X2 of SARS-CoV Urbani: 0.5
  Binding of serum 37 to linear peptides of protein X2: 0.6
  Binding of serum 37 to looped/cyclic peptides of protein X2 of SARS-CoV Urbani: 0.5
  Binding of serum 62 to linear peptides of protein X2: 0.6
  Binding of serum 62 to looped/cyclic peptides of protein X2 of SARS-CoV Urbani: 0.6
  Binding of serum London to linear peptides of protein X2: 0.4
  Binding of serum London to looped/cyclic peptides of protein X2 of SARS-CoV Urbani: 0.3
  Binding of serum SARS-green to linear peptides of protein X2: 0.4
  Binding of serum SARS-green to looped/cyclic peptides of protein X2 of SARS-CoV Urbani: 0.3
  Binding of serum SARS-yellow to linear peptides of protein X2: 0.5
  Binding of serum SARS-yellow to looped/cyclic peptides of protein X2 of SARS-CoV Urbani: 0.6
[2]
  Binding of a rabbit serum to linear peptides: 0.3
  Binding of a rabbit serum to looped peptides: 0.5
[3]
  Binding of Control Serum Blood-Bank to Looped peptides: 0.7
  Binding of Control serum Blood-bank to linear peptides: 0.6
  Binding of Control serum LUMC to linear peptides: 0.4
  Binding of Control serum LUMC to looped peptides: 0.7

Source: patent US20070128217A1 (priority 2003, published 2007)
